Source: patent publication US11986471B2, “Compounds and methods of use” (Tango Therapeutics, Inc., priority 2018, dated 2024)

What was measured:
Assay type in all cases: biochemical
[1] = target: T1, PRMT5 (Homo sapiens, UniProt O14744); test: PRMT5 IC50 assay in the presence of SAM as cofactor
T1 construct: purchased Viva (custom protein)
How it was run: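 Ki conversion: SAM arm, Ki=IC50/1.5; MTA arm, Ki=IC50/13.5. No-cofactor arm reported as IC50 only. Selectivity expressed as Ki(SAM)/Ki(MTA).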

[2] = target: T1, PRMT5; test: PRMT5 IC50 assay with no cofactor
How it was run: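 Potency against PRMT5 is compared across cofactor states, where IC50 equals Ki×1.5 with SAM present and Ki×13.5 with MTA present.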

[3] = target: T1, PRMT5; test: PRMT5 IC50 assay in the presence of MTA as cofactor; details: for IC50: PRMT5, MTA as cofactor
How it was run: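 IC50 against PRMT5 determined with SAM as cofactor, with no cofactor, and with MTA as cofactor. Ki derived as IC50/1.5 for the SAM assay and IC50/13.5 for the MTA assay; SAM Ki to MTA Ki ratio also reported.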

[4] = ratio between the Ki in the presence of SAM and the Ki in the presence of MTA
[5] = ratio between Ki in the presence of SAM and Ki in the presence of MTA

T1 sequence (O14744 whole entry): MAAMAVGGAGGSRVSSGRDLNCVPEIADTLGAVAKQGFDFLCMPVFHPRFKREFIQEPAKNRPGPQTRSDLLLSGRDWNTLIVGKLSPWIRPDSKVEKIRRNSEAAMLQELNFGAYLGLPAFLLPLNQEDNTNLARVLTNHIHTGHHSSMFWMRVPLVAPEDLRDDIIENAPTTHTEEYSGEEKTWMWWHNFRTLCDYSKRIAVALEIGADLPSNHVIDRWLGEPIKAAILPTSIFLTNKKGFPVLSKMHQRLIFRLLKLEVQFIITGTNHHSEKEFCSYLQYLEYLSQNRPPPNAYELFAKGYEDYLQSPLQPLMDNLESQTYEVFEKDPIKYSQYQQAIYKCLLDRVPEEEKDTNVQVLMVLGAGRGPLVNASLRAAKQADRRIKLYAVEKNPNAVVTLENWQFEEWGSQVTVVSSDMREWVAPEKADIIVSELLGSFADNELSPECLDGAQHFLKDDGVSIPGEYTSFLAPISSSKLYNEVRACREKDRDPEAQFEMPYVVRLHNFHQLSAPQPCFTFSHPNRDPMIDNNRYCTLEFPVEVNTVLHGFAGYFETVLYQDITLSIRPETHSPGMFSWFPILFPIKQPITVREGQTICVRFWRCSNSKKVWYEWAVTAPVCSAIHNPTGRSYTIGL
T1 sequence (Q9BQA1 whole entry partner): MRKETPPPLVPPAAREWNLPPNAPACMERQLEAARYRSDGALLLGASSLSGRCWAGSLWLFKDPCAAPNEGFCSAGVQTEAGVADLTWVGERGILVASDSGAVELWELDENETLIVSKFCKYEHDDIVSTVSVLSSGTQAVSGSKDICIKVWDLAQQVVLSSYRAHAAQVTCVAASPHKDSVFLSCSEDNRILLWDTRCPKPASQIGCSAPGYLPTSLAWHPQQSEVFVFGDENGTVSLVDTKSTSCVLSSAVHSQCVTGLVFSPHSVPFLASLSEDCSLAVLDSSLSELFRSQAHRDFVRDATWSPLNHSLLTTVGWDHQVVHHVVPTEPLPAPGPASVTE

SMILES | IC50 [1] [nM] | IC50 [2] [nM] | IC50 [3] [nM] | IC50 ([2]; read-out: No Co-factor IC50) [nM] | SAM/MTA Ratio [3, 4] | SAM/MTA Ratio [3, 5]
Cc1c(OCc2cnco2)ccc2c1CCN(C[C@@H](O)CNC(=O)c1cc(NC3CN(C(=O)CC(C)C)C3)ncn1)C2 [Compound 565, N-[(2S)-2-hydroxy-3-{5-methyl-6-[(1,3-oxazol-5-yl)methoxy]-1,2,3,4-tetrahydroisoquinolin-2-yl}propyl]-6-{[1-(3-methylbutanoyl)azetidin-3-yl]amino}pyrimidine-4-carboxamide] | 500 to 5000 | ≥ 5000 | 500 to 5000 |  | A (a Ki ratio greater than or equal to 10 fold between the Ki in the presence of SAM and the Ki in the presence of MTA) | 
CCC(=O)N1CC(Nc2cc(C(=O)NC[C@H](O)CN3CCc4c(ccc(OCc5cnco5)c4C)C3)ncn2)C1 [Compound 567, N-[(2S)-2-hydroxy-3-{5-methyl-6-[(1,3-oxazol-5-yl)methoxy]-1,2,3,4-tetrahydroisoquinolin-2-yl}propyl]-6-[(1-propanoylazetidin-3-yl)amino]pyrimidine-4-carboxamide] | 50 to 500 | ≥ 5000 | 50 to 500 |  | A (a Ki ratio greater than or equal to 10 fold between the Ki in the presence of SAM and the Ki in the presence of MTA) | 
Cc1c(OCc2cnco2)ccc2c1CCN(C[C@@H](O)CNC(=O)c1cc(NC3CCOCC3)ccn1)C2 [Compound 573, N-[(2S)-2-hydroxy-3-{5-methyl-6-[(1,3-oxazol-5-yl)methoxy]-1,2,3,4-tetrahydroisoquinolin-2-yl}propyl]-4-[(oxan-4-yl)amino]pyridine-2-carboxamide] | 500 to 5000 | ≥ 5000 | 500 to 5000 |  | A (a Ki ratio greater than or equal to 10 fold between the Ki in the presence of SAM and the Ki in the presence of MTA) | 
Cc1c(OCc2cnco2)ccc2c1CCN(C[C@@H](O)CNC(=O)c1cc(NC3CN(C(=O)C4CCC4)C3)ncn1)C2 [Compound 585, 6-[(1-cyclobutanecarbonylazetidin-3-yl)amino]-N-[(2S)-2-hydroxy-3-{5-methyl-6-[(1,3-oxazol-5-yl)methoxy]-1,2,3,4-tetrahydroisoquinolin-2-yl}propyl]pyrimidine-4-carboxamide] | 50 to 500 | ≥ 5000 | 50 to 500 |  | A (a Ki ratio greater than or equal to 10 fold between the Ki in the presence of SAM and the Ki in the presence of MTA) | 
CO[C@H]1C[C@H](Nc2cc(C(=O)NC[C@H](O)CN3CCc4c(ccc(OCc5cnco5)c4C)C3)ccn2)C1 [Compound 591, N-[(2S)-2-hydroxy-3-{5-methyl-6-[(1,3-oxazol-5-yl)methoxy]-1,2,3,4-tetrahydroisoquinolin-2-yl}propyl]-2-{[(1r,3r)-3-methoxycyclobutyl]amino}pyridine-4-carboxamide] | 50 to 500 | ≥ 5000 | 50 to 500 |  | A (a Ki ratio greater than or equal to 10 fold between the Ki in the presence of SAM and the Ki in the presence of MTA) | 
O=C(NC[C@H](O)CN1CCc2cc(OCc3cn[nH]c3)cc(F)c2C1)c1ccnc(NC2CCC2)c1 [Compound 596, 2-(cyclobutylamino)-N-[(2S)-3-[8-fluoro-6-(1H-pyrazol-4-ylmethoxy)-3,4-dihydro-1H-isoquinolin-2-yl]-2-hydroxy-propyl]pyridine-4-carboxamide] | 500 to 5000 | 500 to 5000 | 50 to 500 |  | A (a Ki ratio greater than or equal to 10 fold between the Ki in the presence of SAM and the Ki in the presence of MTA) | 
CC(=O)N1[C@@H]2CC[C@H]1C[C@@H](Nc1cc(C(=O)NC[C@H](O)CN3CCc4cc(OCc5ocnc5C)ccc4C3)ncn1)C2 [Compound 630, 6-{[(1R,3R,5S)-8-acetyl-8-azabicyclo[3.2.1]octan-3-yl]amino}-N-[(2S)-2-hydroxy-3-{6-[(4-methyl-1,3-oxazol-5-yl)methoxy]-1,2,3,4-tetrahydroisoquinolin-2-yl}propyl]pyrimidine-4-carboxamide] | 500 to 5000 |  | 50 to 500 | ≥ 5000 |  | A (a Ki ratio greater than or equal to 10 fold between the Ki in the presence of SAM and the Ki in the presence of MTA)

More lines, main results first:

IC50 [1] [nM] | IC50 [2] [nM] | IC50 [3] [nM] | IC50 ([2]; read-out: No Co-factor IC50) [nM] | SMILES | SAM/MTA Ratio [3, 4] | SAM/MTA Ratio [3, 5]
500 to 5000 | ≥ 5000 | 50 to 500 |  | CC(=O)N1CC(Nc2nc(C(=O)NC[C@H](O)CN3CCc4cc(OCc5ocnc5C)ccc4C3)cc(N3CCCCC3)n2)C1 [Compound 608, (S)-2-((1-acetylazetidin-3-yl)amino)-N-(2-hydroxy-3-(6-((4-methyloxazol-5-yl)methoxy)-3,4-dihydroisoquinolin-2(1H)-yl)propyl)-6-(piperidin-1-yl)pyrimidine-4-carboxamide] | A (a Ki ratio greater than or equal to 10 fold between the Ki in the presence of SAM and the Ki in the presence of MTA) | 
50 to 500 | ≥ 5000 | 50 to 500 |  | Cc1ncoc1COc1ccc2c(c1)CCN(C[C@@H](O)CNC(=O)c1cc(NC3CCN(C)C(=O)C3)ncn1)C2 (stereo partly drawn) [Compound 613, N-[(2S)-2-hydroxy-3-{6-[(4-methyl-1,3-oxazol-5-yl)methoxy]-1,2,3,4-tetrahydroisoquinolin-2-yl}propyl]-6-[(1-methyl-2-oxopiperidin-4-yl)amino]pyrimidine-4-carboxamide] |  | 
500 to 5000 | ≥ 5000 | 500 to 5000 |  | CC(=O)N1C[C@@H]2[C@H](C1)[C@H]2Nc1cc(C(=O)NC[C@H](O)CN2CCc3cc(OCc4ocnc4C)ccc3C2)ncn1 [Compound 620, 6-{[(1R,5S,6R)-3-acetyl-3-azabicyclo[3.1.0]hexan-6-yl]amino}-N-[(2S)-2-hydroxy-3-[6-[(4-methyl-1,3-oxazol-5-yl)methoxy]-1,2,3,4-tetrahydroisoquinolin-2-yl]propyl]pyrimidine-4-carboxamide] | A (a Ki ratio greater than or equal to 10 fold between the Ki in the presence of SAM and the Ki in the presence of MTA) | 
50 to 500 |  | 50 to 500 | ≥ 5000 | Cc1ncoc1COc1ccc2c(c1)CCN(C[C@@H](O)CNC(=O)c1ccnc(NC3CCN(C)C(=O)C3)c1)C2 (stereo partly drawn) [Compound 627] |  | A (a Ki ratio greater than or equal to 10 fold between the Ki in the presence of SAM and the Ki in the presence of MTA)
50 to 500 |  | 50 to 500 | ≥ 5000 | CC(=O)N1CC2CC1CC2Nc1cc(C(=O)NC[C@H](O)CN2CCc3cc(OCc4ocnc4C)ccc3C2)ncn1 (stereo partly drawn) [Compound 632, 6-({2-acetyl-2-azabicyclo[2.2.1]heptan-5-yl}amino)-N-[(2S)-2-hydroxy-3-{6-[(4-methyl-1,3-oxazol-5-yl)methoxy]-1,2,3,4-tetrahydroisoquinolin-2-yl}propyl]pyrimidine-4-carboxamide] |  | A (a Ki ratio greater than or equal to 10 fold between the Ki in the presence of SAM and the Ki in the presence of MTA)
500 to 5000 |  | 50 to 500 | ≥ 5000 | Cc1ncoc1COc1ccc2c(c1)CCN(C[C@@H](O)CNC(=O)c1cc(NC3CCC3)nc(N3CCCCC3)c1)C2 [Compound 633, 2-(cyclobutylamino)-N-[(2S)-2-hydroxy-3-{6-[(4-methyl-1,3-oxazol-5-yl)methoxy]-1,2,3,4-tetrahydroisoquinolin-2-yl}propyl]-6-(piperidin-1-yl)pyridine-4-carboxamide] |  | A (a Ki ratio greater than or equal to 10 fold between the Ki in the presence of SAM and the Ki in the presence of MTA)
